Experimental data reported in US20250234862A1, “FUNGICIDAL COMPOSITION FOR PREVENTING AND CONTROLLING ROOT ROT DISEASES IN CROPS CAUSED BY FUSARIUM SPP” (Institute Of Plant Protection And Agro-Products Safety, …, priority 2024, published 2025).

Experiments:
[1] = system: Fusarium pseudogramineaqum; test: Indoor toxicity determination, mycelial growth assay on PDA medium; assay type: cell-based; settings: mycelial growth inhibition, 25° C., wheat Fusarium pseudogramineaqum
Experimental: (§1) A detailed analysis of the fungicidal properties of cyclobutrifluram and ipconazole was conducted. First, the EC50 ([…]) of the two single compounds (hereinafter referred to as agents) was determined. According to the EC50 of the two single agents, the combination ratio of the two agents was set according to the Wadley method, and based on the Wadley synergistic coefficient SR value.
(§2) The experimental targets were Fusarium pseudogramineaqum and Fusarium solani. The cyclobutrifluram and ipconazole were selected, and the PDA solid medium were selected, and the required liquid chemicals plates were prepared at about 18 ml per plate. The mycelium blocks with 5 mm diameter were prepared at the edge of pre cultured colonies using a sterilized punch, transferred to different culture media plates, and cultivated at 25° C. The experiment used the mycelial growth assay method to prepare drug containing culture media according to different treatments. The mycelium blocks with 5 mm diameter were prepared at the edge of pre cultured colonies using a sterilized punch and transferred to different culture media plates with different drug contents. The colony diameter was measured using the cross over method, and the colony diameter (mm) was measured. The growth inhibition rate was calculated using the following formula: […]
(§3) The mycelial growth inhibition rate was converted to the inhibition probability value (y), and the drug concentration was converted to the concentration logarithm (x). The concentration logarithm was used as the x-axis and the probability value was used as the y-axis to create a toxicity regression line. The toxicity regression equation of a single agent of cyclobutrifluram and ipconazole and a mixed agent of cyclobutrifluram and ipconazole against the pathogen were obtained, and the EC50 value and correlation coefficient r were calculated.
(§4) According to the Wadley method to evaluate the interaction of the mixed agent, the calculation formula is as follows: […]
(§5) Among them, a and b are the proportions of each component in the mixed agent, and the SR value is used to analyze the mixing effect. If SR≤0.5, the mixed agent of the two drugs has an antagonistic effect; if SR=0.5-1.5, the mixed agent of the two drugs has an additive effect; if SR≥1.5, the mixed agent of the two drugs has a synergistic effect.

Fusarium solani = test: as above; assay type: cell-based; settings: mycelial growth inhibition, 25° C., soybean Fusarium solani
Experimental: as §1, §2, §3, §4, §5

[2] = system: wheat stem base rot disease; test: Field control experiment on wheat stem base rot disease (seed coating); assay type: in vivo, wheat variety Quanmai 725
Experimental: Experiments employed 20% cyclobutrifluram·ipconazole suspension seed coating agent in example 1 of formulation implementation and 45% cyclobutrifluram suspension seed coating agent, 20% ipconazole suspension seed coating agent, and 15% carbendazim·thiram suspension seed coating agent. Experimental site was located at Liu Lake Farm in Suixi County using the wheat variety “Quanmai 725”. The agent was applied to seeds at a 1:1000 ratio by weight for seed coating. Additionally, the agent was diluted into a solution, with a final volume of 1 liter of solution used to treat 100 kg of wheat seeds, which were then dried in the shade before direct planting. Disease investigations were conducted during the tillering stage and after the growth of wheat entered the jointing-booting stage (Table 3).

Structure (SMILES) | EC50 [1] | EC50 (Fusarium solani) | control effect on wheat stem base rot disease (in words) [2]
CC(C)C1CCC(Cc2ccc(Cl)cc2)C1(O)Cn1cncn1 (stereo not drawn) [Ipconazole, (1RS,2SR,5RS;1RS,2SR,5SR)-2-(4-chlorobenzyl)-5-isopropyl-1-(1H-1,2,4-triazol-1-ylmethyl)cyclopentanol] | 0.1506 ppm | 0.1808 ppm | significant control effect
O=C(NC1CCC1c1ccc(Cl)cc1Cl)c1cccnc1C(F)(F)F (stereo not drawn) [Cyclobutrifluram] | 0.3033 ppm | 0.3774 ppm | significant control effect
